Assay results taken from ChEMBL document CHEMBL5465560, “Selectivity Literature for EUbOPEN Chemogenomic Library” (2024).

Tests used:
[1] = target: Serine/threonine-protein kinase SIK3 (Homo sapiens) (UniProt Q9Y2K2); test: Selectivity interaction (KinomeScan (DiscoverX)) EUB0000229b SIK3; conditions: at 10 µM
[2] = target: T1, Mitogen-activated protein kinase kinase kinase kinase 2 (Homo sapiens) (UniProt Q12851); test: Selectivity interaction (KinomeScan (DiscoverX)) EUB0000595a MAP4K2; conditions: at 10 µM
T1 sequence (whole entry): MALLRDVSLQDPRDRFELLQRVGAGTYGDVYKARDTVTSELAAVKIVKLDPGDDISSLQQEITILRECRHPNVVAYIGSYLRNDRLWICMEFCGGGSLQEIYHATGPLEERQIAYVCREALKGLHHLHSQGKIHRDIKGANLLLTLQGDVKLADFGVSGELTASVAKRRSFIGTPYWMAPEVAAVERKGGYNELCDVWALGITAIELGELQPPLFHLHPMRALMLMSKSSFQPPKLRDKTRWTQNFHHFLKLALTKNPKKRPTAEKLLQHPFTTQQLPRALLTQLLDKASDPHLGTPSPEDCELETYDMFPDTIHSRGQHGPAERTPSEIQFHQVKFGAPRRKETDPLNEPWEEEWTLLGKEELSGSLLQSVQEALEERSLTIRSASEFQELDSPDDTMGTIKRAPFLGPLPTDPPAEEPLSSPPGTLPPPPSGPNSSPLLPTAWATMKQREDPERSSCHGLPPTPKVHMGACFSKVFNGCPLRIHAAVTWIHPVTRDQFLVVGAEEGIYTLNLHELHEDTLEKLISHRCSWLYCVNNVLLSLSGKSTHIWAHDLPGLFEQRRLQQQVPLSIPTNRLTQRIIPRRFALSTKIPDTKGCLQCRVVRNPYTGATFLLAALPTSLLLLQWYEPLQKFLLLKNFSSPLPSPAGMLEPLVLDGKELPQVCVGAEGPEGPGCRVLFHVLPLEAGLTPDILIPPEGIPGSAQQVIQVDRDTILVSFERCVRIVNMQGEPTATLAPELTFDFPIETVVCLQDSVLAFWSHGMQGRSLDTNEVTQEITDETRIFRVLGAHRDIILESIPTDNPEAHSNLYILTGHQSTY

[3] = target: T2, Homeodomain-interacting protein kinase 4 (Homo sapiens) (UniProt Q8NE63); test: Selectivity interaction (KinomeScan (DiscoverX)) EUB0000595a HIPK4; conditions: at 10 µM
T2 sequence (whole entry): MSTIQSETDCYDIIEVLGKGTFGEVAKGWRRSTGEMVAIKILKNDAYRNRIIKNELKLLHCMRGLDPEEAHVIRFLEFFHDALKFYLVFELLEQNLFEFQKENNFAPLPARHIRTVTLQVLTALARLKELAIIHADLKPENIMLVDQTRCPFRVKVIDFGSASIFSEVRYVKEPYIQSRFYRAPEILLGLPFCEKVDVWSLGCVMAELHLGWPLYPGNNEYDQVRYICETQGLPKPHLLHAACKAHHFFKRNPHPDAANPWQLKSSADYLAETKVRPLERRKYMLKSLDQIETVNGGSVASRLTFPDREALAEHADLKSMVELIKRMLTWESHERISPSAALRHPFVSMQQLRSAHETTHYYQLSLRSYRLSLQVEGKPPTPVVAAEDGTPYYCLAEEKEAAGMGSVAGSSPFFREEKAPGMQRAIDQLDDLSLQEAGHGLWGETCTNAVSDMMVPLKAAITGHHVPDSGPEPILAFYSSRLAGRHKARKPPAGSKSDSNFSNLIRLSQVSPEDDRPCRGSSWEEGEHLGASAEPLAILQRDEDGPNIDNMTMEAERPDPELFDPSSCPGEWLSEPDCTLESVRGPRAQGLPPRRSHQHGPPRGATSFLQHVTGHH

[4] = target: Glycogen synthase kinase-3 beta (Homo sapiens, UniProt P49841); test: Selectivity interaction (Kinase panel (Z-LYTE Assay)) EUB0001632a GSK3B; conditions: at 10 µM
Chain of Glycogen synthase kinase-3 beta (P49841 whole entry, looked up): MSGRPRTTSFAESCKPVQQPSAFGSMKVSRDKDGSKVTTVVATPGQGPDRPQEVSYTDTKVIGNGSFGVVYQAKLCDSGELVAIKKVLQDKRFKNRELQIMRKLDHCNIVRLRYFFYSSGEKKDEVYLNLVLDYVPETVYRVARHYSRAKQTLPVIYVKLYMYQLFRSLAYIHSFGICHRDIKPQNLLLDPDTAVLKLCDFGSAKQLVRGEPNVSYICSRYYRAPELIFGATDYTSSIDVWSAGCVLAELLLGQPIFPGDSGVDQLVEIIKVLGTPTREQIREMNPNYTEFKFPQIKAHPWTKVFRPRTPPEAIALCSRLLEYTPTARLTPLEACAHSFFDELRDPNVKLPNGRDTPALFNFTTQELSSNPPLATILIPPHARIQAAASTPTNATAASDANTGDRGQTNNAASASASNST

[5] = target: T3, Dual specificity mitogen-activated protein kinase kinase 6 (Homo sapiens) (UniProt P52564); test: Selectivity interaction (ActivX KiNativ screen (ex vivo kinase selectivity in human PBMCs)) EUB0001619a MAP2K6; assay type: cell-based; conditions: PBMC, at 1 µM
T3 sequence (whole entry): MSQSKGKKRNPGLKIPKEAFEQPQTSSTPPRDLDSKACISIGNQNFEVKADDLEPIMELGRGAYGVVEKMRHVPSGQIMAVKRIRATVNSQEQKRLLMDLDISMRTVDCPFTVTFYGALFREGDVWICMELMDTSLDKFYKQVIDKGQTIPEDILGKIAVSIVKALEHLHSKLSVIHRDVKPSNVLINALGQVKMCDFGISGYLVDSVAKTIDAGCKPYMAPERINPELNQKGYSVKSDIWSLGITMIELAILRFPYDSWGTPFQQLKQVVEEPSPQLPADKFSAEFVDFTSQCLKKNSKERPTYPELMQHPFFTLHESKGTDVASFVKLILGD

[6] = target: Focal adhesion kinase 1 (Homo sapiens, UniProt Q05397); test: Selectivity interaction (KinomeScan (DiscoverX)) EUB0001619a PTK2; conditions: at 1 µM
Chain of Focal adhesion kinase 1 (Q05397 2-1052 limits assumed): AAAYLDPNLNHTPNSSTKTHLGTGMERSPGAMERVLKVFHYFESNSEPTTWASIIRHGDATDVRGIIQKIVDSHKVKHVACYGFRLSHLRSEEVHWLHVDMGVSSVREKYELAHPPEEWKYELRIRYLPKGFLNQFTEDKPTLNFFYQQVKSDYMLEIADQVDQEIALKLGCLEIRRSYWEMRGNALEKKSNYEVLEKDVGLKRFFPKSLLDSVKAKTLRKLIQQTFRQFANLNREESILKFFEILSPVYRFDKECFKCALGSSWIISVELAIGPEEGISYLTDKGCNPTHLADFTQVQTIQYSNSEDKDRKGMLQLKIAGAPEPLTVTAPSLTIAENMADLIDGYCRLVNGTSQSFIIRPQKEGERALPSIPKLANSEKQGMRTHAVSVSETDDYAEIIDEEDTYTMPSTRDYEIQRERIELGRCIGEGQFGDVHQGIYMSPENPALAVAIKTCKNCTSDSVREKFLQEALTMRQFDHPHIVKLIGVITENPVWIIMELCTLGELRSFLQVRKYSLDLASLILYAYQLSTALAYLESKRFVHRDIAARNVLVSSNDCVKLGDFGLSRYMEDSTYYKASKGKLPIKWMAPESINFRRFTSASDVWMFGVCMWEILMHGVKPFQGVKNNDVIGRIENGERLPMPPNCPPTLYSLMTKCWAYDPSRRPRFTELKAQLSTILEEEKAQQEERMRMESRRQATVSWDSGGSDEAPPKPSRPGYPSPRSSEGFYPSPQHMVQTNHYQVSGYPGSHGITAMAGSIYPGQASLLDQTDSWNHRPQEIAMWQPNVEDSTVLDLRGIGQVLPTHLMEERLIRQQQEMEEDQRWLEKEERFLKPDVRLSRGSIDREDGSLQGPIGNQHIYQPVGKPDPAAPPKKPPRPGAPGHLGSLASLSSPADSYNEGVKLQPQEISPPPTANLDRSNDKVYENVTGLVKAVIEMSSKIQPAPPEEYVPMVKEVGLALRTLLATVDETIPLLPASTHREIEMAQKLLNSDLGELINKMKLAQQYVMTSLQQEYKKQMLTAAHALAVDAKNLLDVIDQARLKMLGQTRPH

[7] = target: T4, Serine/threonine-protein kinase Chk1 (Homo sapiens) (UniProt O14757); conditions: at 10 µM
T4 sequence (whole entry): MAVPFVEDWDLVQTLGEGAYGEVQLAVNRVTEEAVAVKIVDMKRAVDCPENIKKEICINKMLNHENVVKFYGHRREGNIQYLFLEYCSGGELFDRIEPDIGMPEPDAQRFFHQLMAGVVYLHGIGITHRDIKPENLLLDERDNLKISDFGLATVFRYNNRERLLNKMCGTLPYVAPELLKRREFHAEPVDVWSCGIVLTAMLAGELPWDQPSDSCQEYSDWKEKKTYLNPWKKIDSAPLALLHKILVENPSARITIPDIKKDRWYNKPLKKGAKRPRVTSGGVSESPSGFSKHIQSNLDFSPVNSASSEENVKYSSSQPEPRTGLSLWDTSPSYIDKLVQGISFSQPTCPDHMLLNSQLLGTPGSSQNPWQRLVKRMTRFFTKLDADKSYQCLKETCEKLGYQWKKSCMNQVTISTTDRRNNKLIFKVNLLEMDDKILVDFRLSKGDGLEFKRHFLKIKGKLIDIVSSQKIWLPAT

Chain of Serine/threonine-protein kinase SIK3 (Homo sapiens) (Q9Y2K2 whole entry, looked up): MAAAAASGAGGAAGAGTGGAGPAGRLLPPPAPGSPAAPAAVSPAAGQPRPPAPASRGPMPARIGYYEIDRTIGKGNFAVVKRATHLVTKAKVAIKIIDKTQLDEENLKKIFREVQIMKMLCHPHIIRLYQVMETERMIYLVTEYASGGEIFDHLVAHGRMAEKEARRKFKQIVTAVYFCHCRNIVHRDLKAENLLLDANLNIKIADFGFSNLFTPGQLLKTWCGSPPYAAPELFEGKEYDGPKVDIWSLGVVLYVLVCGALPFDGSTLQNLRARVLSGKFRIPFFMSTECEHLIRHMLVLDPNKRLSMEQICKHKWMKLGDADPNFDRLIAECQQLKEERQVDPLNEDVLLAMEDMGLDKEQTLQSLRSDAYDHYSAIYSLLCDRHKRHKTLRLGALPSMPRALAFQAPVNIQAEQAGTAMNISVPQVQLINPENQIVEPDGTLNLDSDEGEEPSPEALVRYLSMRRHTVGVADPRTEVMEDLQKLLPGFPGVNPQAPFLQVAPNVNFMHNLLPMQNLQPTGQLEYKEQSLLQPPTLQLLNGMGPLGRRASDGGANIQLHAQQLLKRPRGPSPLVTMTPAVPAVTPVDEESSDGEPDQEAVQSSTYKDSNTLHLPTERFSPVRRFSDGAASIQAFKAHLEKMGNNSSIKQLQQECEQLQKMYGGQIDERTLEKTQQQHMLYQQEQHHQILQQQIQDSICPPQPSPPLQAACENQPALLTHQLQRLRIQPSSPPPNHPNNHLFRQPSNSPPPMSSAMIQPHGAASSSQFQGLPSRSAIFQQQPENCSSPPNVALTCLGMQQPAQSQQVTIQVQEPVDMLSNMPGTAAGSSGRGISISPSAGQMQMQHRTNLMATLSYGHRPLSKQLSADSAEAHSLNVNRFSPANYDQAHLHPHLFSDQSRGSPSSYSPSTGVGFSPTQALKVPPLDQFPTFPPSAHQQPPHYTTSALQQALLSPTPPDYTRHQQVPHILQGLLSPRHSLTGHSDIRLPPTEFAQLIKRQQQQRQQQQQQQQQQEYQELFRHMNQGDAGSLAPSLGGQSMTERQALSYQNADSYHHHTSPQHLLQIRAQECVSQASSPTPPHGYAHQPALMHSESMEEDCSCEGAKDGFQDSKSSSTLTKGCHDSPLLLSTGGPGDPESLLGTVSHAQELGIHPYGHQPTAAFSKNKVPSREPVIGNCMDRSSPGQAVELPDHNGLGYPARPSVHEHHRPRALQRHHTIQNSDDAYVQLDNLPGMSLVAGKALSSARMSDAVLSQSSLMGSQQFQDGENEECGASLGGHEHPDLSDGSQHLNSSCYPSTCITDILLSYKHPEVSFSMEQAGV

COc1cc(N(C)c2ccnc3ccc(C(F)(F)F)cc23)cc(OC)c1OC
% binding [1]: 74%

COCC(=O)NC/C=C/c1ccc2ncnc(Nc3ccc(Oc4ccc(C)nc4)c(C)c3)c2c1 [CP-724714]
% of control [2]: 100%
% of control [3]: 95%

Cn1cc(-n2cnc3c(NCc4nc5cc(Cl)c(Cl)cc5[nH]4)nc(N4CCOCC4)nc32)cn1
% of control [4]: 89.1%

N#Cc1cccc(-c2c[nH]c3ncnc(N4CCOCC4)c23)c1
% of inhibition [5]: 14%
% of control [6]: 100%

CCN(CC)CCCCNc1ncc2cc(-c3cc(OC)cc(OC)c3)c(NC(=O)NC(C)(C)C)nc2n1
% of control [7]: 100%
